From ChEMBL document CHEMBL2203257 (Bioorg Med Chem Lett, 2012)

Key:
[1] = target: Calcium/calmodulin-dependent protein kinase type IV (Homo sapiens, UniProt Q16566); assay: Inhibition of CAMK4
[2] = target: Calcium/calmodulin-dependent protein kinase kinase 1 (Homo sapiens, UniProt Q8N5S9); assay: Inhibition of CAMKK1
[3] = target: Cyclin-dependent kinase 1 (Homo sapiens, UniProt P06493); assay: Inhibition of CDC2
[4] = target: Casein kinase II subunit alpha' (Homo sapiens, UniProt P19784); assay: Inhibition of CK2a2
[5] = target: Casein kinase I isoform alpha (Homo sapiens, UniProt P48729); assay: Inhibition of CSNK1A1
[6] = target: Casein kinase I isoform delta (Homo sapiens, UniProt P48730); assay: Inhibition of CSNK1D
[7] = target: Casein kinase I isoform epsilon (Homo sapiens, UniProt P49674); assay: Inhibition of CSNK1E
[8] = target: Casein kinase I isoform gamma-1 (Homo sapiens, UniProt Q9HCP0); assay: Inhibition of CSNK1G1
[9] = target: Casein kinase I isoform gamma-3 (Homo sapiens, UniProt Q9Y6M4); assay: Inhibition of CSNK1G3
Ephrin type-A receptor 2 = Ephrin type-A receptor 2 (Homo sapiens, UniProt P29317); assay: Inhibition of EPHA2
Ephrin type-A receptor 2, sequence (P29317 whole entry): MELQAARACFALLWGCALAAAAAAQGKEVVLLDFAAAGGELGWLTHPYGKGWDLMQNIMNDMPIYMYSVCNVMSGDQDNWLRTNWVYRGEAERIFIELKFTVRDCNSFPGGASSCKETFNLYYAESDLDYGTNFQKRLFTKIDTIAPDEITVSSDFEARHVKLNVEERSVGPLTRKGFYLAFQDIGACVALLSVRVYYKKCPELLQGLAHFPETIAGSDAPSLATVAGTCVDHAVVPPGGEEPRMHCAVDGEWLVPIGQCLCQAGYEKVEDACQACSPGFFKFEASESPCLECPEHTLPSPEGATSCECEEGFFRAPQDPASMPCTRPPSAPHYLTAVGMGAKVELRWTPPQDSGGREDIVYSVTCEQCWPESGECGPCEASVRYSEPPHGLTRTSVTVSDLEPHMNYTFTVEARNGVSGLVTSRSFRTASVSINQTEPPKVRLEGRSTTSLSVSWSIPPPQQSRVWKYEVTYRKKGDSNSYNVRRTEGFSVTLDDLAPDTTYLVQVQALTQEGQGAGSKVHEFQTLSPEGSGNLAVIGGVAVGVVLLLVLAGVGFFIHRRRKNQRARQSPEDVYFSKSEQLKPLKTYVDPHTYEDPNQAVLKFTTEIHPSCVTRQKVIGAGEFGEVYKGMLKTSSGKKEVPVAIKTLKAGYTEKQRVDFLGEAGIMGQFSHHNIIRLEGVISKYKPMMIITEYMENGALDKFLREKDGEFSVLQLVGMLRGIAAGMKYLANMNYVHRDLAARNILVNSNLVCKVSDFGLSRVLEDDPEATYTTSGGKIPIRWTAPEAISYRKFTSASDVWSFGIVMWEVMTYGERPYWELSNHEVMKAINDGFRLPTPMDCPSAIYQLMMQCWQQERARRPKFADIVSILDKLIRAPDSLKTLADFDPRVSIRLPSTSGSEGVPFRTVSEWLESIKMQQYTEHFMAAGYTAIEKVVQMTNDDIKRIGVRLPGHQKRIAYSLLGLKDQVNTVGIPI

Ephrin type-A receptor 3 = Ephrin type-A receptor 3 (Homo sapiens, UniProt P29320); assay: Inhibition of EPHA3
Ephrin type-B receptor 2 = Ephrin type-B receptor 2 (Homo sapiens, UniProt P29323); assay: Inhibition of EPHB2
[10] = target: Tyrosine-protein kinase FRK (Homo sapiens, UniProt P42685); assay: Inhibition of FRK
Tyrosine-protein kinase FRK, sequence (P42685 whole entry): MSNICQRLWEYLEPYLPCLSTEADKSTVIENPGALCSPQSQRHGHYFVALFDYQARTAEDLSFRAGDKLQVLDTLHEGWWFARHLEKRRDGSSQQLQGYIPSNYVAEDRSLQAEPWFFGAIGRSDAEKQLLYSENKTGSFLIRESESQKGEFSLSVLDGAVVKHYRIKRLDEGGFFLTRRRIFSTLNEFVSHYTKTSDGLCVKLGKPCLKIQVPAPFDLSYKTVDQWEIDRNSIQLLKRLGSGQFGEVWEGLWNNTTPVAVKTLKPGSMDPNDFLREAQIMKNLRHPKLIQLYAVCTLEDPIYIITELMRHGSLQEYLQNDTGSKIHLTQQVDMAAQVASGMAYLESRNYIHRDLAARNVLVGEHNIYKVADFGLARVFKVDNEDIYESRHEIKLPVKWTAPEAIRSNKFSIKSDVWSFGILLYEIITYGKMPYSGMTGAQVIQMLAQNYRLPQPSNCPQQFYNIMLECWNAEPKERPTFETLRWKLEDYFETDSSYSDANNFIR

[11] = target: Glycogen synthase kinase-3 alpha (Homo sapiens, UniProt P49840); assay: Inhibition of GSK3A
Scaffold protein ILK = Scaffold protein ILK (Homo sapiens, UniProt Q13418); assay: Inhibition of ILK
[12] = target: Interleukin-1 receptor-associated kinase 1 (Homo sapiens, UniProt P51617); assay: Inhibition of IRAK1
[13] = target: Tyrosine-protein kinase JAK1 (Homo sapiens, UniProt P23458); assay: Inhibition of JAK1
[14] = target: Dual specificity mitogen-activated protein kinase kinase 2 (Homo sapiens, UniProt P36507); assay: Inhibition of MAP2K2
Dual specificity mitogen-activated protein kinase kinase 2, sequence (P36507 whole entry): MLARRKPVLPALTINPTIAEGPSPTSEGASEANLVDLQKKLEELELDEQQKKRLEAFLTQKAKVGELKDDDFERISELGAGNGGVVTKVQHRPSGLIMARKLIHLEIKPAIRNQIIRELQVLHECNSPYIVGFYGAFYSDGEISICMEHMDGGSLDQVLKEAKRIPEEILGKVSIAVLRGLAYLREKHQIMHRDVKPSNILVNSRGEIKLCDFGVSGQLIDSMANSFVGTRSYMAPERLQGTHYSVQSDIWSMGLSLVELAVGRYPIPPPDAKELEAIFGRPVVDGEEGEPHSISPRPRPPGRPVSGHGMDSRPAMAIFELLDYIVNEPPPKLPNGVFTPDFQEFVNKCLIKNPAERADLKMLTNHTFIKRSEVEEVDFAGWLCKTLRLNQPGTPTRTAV

[15] = target: Mitogen-activated protein kinase kinase kinase 11 (Homo sapiens, UniProt Q16584); assay: Inhibition of MAP3K11
[16] = target: Mitogen-activated protein kinase kinase kinase 3 (Homo sapiens, UniProt Q99759); assay: Inhibition of MAP3K3
[17] = target: Mitogen-activated protein kinase kinase kinase 4 (Homo sapiens, UniProt Q9Y6R4); assay: Inhibition of MAP3K4
[18] = target: MAP/microtubule affinity-regulating kinase 4 (Homo sapiens, UniProt Q96L34); assay: Inhibition of MARK4
[19] = target: Maternal embryonic leucine zipper kinase (Homo sapiens, UniProt Q14680); assay: Inhibition of MELK
[20] = target: Serine/threonine-protein kinase Nek9 (Homo sapiens, UniProt Q8TD19); assay: Inhibition of NEK9
Serine/threonine-protein kinase Nek9, sequence (Q8TD19 whole entry): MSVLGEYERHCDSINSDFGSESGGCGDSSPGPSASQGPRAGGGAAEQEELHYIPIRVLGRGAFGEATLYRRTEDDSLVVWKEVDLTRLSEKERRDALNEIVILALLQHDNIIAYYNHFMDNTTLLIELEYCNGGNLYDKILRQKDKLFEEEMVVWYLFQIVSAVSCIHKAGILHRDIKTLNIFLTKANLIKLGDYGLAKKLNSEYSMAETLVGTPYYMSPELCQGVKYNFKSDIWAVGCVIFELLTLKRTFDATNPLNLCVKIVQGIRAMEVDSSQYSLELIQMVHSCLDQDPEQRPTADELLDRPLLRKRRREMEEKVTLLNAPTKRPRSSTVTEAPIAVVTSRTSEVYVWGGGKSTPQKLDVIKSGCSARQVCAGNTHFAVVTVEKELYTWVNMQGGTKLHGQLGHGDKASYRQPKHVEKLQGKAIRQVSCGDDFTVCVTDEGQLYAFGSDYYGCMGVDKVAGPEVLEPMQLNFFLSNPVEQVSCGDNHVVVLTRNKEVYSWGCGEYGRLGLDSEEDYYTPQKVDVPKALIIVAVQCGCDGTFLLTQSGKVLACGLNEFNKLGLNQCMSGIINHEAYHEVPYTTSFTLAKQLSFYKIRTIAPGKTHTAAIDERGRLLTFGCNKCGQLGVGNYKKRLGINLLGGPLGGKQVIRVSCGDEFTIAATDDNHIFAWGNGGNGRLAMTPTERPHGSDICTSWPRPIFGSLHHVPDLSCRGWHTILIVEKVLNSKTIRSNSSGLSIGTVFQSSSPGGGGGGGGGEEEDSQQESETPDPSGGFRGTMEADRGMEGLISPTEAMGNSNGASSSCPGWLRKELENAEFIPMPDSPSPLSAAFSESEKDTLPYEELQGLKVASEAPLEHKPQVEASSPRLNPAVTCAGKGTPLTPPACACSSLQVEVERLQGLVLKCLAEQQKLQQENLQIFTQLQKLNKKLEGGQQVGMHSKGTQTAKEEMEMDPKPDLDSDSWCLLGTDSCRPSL

[21] = target: Serine/threonine-protein kinase NLK (Homo sapiens, UniProt Q9UBE8); assay: Inhibition of NLK
Serine/threonine-protein kinase NLK, sequence (Q9UBE8 whole entry, canonical isoform): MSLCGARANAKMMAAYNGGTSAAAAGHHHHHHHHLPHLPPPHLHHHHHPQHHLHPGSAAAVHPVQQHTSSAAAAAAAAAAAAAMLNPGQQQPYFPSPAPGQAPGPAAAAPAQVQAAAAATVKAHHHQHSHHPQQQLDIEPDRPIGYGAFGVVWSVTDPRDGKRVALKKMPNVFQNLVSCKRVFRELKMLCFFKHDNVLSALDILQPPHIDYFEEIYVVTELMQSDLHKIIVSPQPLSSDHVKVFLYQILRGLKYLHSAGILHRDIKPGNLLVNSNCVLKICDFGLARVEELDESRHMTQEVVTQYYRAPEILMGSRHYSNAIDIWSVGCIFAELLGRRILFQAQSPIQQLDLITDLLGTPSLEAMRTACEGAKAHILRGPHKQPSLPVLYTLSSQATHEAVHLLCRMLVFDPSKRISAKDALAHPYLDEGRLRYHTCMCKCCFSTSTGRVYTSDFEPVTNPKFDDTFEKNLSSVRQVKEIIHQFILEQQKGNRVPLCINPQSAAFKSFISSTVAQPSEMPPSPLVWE

[22] = target: Phosphatidylinositol 4,5-bisphosphate 3-kinase catalytic subunit alpha isoform (Homo sapiens, UniProt P42336); assay: Inhibition of PIK3Ca
[23] = target: Phosphoinositide 3-kinase regulatory subunit 4 (Homo sapiens, UniProt Q99570); assay: Inhibition of PIK3R4
[24] = target: Phosphatidylinositol 4-kinase alpha (Homo sapiens, UniProt P42356); assay: Inhibition of PIK4Ca
[25] = target: Phosphatidylinositol 5-phosphate 4-kinase type-2 gamma (Homo sapiens, UniProt Q8TBX8); assay: Inhibition of PIP4K2C
[26] = target: Protein kinase C delta type (Homo sapiens, UniProt Q05655); assay: Inhibition of PRKCD
[27] = target: Receptor-interacting serine/threonine-protein kinase 2 (Homo sapiens, UniProt O43353); assay: Inhibition of RIPK2
[28] = target: Ribosomal protein S6 kinase alpha-5 (Homo sapiens, UniProt O75582); assay: Inhibition of RPS6KA5
[29] = target: Serine/threonine-protein kinase SIK2 (Homo sapiens, UniProt Q9H0K1); assay: Inhibition of SIK2
[30] = target: Serine/threonine-protein kinase 16 (Homo sapiens, UniProt O75716); assay: Inhibition of STK16
[31] = target: Serine/threonine-protein kinase 4 (Homo sapiens, UniProt Q13043); assay: Inhibition of STK4
[32] = target: Dual specificity testis-specific protein kinase 1 (Homo sapiens, UniProt Q15569); assay: Inhibition of TESK1
Activated CDC42 kinase 1 = Activated CDC42 kinase 1 (Homo sapiens, UniProt Q07912); assay: Inhibition of TNK2
Wee1-like protein kinase = Wee1-like protein kinase (Homo sapiens, UniProt P30291); assay: Inhibition of WEE1
[33] = target: Mitogen-activated protein kinase kinase kinase 20 (Homo sapiens, UniProt Q9NYL2); assay: Inhibition of ZAK
Mitogen-activated protein kinase kinase kinase 20, sequence (Q9NYL2 whole entry, canonical isoform): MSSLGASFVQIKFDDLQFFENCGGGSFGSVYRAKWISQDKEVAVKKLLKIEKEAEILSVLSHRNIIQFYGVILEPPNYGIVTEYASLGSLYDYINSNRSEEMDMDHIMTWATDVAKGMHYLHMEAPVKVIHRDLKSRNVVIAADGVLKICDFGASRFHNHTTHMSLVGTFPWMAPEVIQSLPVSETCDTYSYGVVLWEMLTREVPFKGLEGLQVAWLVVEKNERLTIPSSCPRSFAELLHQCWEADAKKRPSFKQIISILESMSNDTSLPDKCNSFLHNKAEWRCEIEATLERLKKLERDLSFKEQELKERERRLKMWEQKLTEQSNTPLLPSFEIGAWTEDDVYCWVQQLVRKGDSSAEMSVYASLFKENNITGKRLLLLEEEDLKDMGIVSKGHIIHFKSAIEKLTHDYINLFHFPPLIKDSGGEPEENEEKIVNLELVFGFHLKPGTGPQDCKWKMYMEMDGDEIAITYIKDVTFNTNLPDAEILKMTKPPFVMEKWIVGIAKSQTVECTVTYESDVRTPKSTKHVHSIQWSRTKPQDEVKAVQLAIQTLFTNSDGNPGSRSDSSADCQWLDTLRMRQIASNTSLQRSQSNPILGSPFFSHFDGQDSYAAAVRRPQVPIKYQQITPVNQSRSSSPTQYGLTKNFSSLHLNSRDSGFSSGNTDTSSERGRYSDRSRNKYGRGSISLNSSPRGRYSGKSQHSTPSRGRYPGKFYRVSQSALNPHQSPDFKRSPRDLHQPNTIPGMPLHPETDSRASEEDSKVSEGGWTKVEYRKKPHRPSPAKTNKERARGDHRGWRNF

[34] = target: Phosphatidylinositol 4,5-bisphosphate 3-kinase catalytic subunit gamma isoform (Homo sapiens, UniProt P48736); assay: Inhibition of PI3Kgamma by kinobeads assay
[35] = target: Phosphatidylinositol 4,5-bisphosphate 3-kinase catalytic subunit delta isoform/gamma isoform (Homo sapiens, UniProt P48736+O00329); assay: Inhibition of PI3Kgamma/delta by neutrophil migration assay
[36] = Cmax in rat […] at 5 mg/kg, po; 1 mg/kg, iv; type: ADME, organism-based
[37] = Half life in cynomolgus monkey; type: ADME, organism-based, Macaca fascicularis; details: in vivo
[38] = target: Voltage-gated inwardly rectifying potassium channel KCNH2 (Homo sapiens, UniProt Q12809); assay: Inhibition of human ERG at >250 uM by patch clamp method
Mus musculus [39] = assay: Antiarthritic activity against collagen-induced arthritis mouse model assessed as mean clinical arthritis score with AUC calculation in at 3 mg/kg, po BID for 14 days; type: functional
Mus musculus [40] = assay: Antiarthritic activity against collagen-induced arthritis mouse model assessed as inhibition of disease progression at 10 mg/kg, po BID for 14 days; type: functional; details: 336 h
Activin receptor type-2B = Activin receptor type-2B (Homo sapiens, UniProt Q13705); assay: Inhibition of ACVR2B
[41] = target: Atypical kinase COQ8B, mitochondrial (Homo sapiens, UniProt Q96D53); assay: Inhibition of ADCK4
[42] = target: Serine/threonine-protein kinase A-Raf (Homo sapiens, UniProt P10398); assay: Inhibition of ARAF
Serine/threonine-protein kinase A-Raf, sequence (P10398 whole entry): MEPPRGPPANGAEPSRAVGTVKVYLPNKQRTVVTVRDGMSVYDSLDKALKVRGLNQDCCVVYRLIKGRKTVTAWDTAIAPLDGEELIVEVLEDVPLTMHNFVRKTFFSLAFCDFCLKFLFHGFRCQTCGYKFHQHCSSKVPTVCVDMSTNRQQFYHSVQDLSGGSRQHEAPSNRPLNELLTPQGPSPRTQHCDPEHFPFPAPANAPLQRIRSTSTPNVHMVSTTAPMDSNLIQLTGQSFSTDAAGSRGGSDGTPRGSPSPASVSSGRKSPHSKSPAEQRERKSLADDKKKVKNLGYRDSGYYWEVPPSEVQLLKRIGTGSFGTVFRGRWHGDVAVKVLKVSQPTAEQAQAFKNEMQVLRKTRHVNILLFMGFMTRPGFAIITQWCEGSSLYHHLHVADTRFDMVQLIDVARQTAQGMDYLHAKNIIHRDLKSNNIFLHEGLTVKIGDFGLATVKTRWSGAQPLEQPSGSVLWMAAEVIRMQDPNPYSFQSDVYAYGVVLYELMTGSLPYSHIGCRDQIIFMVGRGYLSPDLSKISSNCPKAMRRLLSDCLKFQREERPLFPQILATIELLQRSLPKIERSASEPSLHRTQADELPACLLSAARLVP

[43] = target: Serine-protein kinase ATM (Homo sapiens, UniProt Q13315); assay: Inhibition of ATM
[44] = target: Bone morphogenetic protein receptor type-1A (Homo sapiens, UniProt P36894); assay: Inhibition of BMPR1A
[45] = target: Calcium/calmodulin-dependent protein kinase type 1D (Homo sapiens, UniProt Q8IU85); assay: Inhibition of CAMK1D
[46] = Oral bioavailability in Wistar rat at 5 mg/kg; 1 mg/kg, iv; details: in vivo

CC(C)(C)NS(=O)(=O)c1cncc(-c2ccn3nc(N)nc3c2)c1
IC50 [1]: > 10 µM
IC50 [2]: > 10 µM
IC50 [3]: > 10 µM
IC50 [4]: > 10 µM
IC50 [5]: 9.12 µM
IC50 [6]: > 10 µM
IC50 [7]: > 10 µM
IC50 [8]: 9.55 µM
IC50 [9]: > 10 µM
IC50 (Ephrin type-A receptor 2): > 10 µM
IC50 (Ephrin type-A receptor 3): > 10 µM
IC50 (Ephrin type-B receptor 2): > 10 µM
IC50 [10]: > 10 µM
IC50 [11]: > 10 µM
IC50 (Scaffold protein ILK): > 10 µM
IC50 [12]: > 10 µM
IC50 [13]: 4.37 µM
IC50 [14]: > 10 µM
IC50 [15]: > 10 µM
IC50 [16]: > 10 µM
IC50 [17]: > 10 µM
IC50 [18]: > 10 µM
IC50 [19]: > 10 µM
IC50 [20]: > 10 µM
IC50 [21]: > 10 µM
IC50 [22]: 2.45 µM
IC50 [23]: > 10 µM
IC50 [24]: > 5.89 µM
IC50 [25]: 1.07 µM
IC50 [26]: > 10 µM
IC50 [27]: > 10 µM
IC50 [28]: > 10 µM
IC50 [29]: > 10 µM
IC50 [30]: > 10 µM
IC50 [31]: > 10 µM
IC50 [32]: > 10 µM
IC50 (Activated CDC42 kinase 1): > 10 µM
IC50 (Wee1-like protein kinase): > 10 µM
IC50 [33]: > 10 µM
IC50 [34]: 0.0126 µM
pIC50 [35]: 6.3
Cmax [36]: 5.9 µM
half-life [37]: 6.1 h
inhibition (INH) [38]: Not Active
Activity (Mus musculus [39]): 30%
inhibition in vivo at 10 mg/kg (Mus musculus [40]): 46%
IC50 (Activin receptor type-2B): > 10 µM
IC50 [41]: > 10 µM
IC50 [42]: > 10 µM
IC50 [43]: > 10 µM
IC50 [44]: > 10 µM
IC50 [45]: > 10 µM
bioavailability [46]: 81%
